# Experimental data reported in patent publication US12448388B2, “PRMT5 inhibitors and uses thereof” (Gilead Sciences, Inc., priority 2023, dated 2025).
# Like-named read-outs stand apart in the source and are kept apart here.
# Tests used:
# [1] = test system: HCT116 MTAP-deleted cell lines; assay: Cell viability assay (CellTiter-Glo, 7 days), HCT116 MTAP-deleted; type: cell-based; conditions: for Selectivity: HCT116 WT CC50 versus HCT116 MTAP^del CC50; for plasma-adjusted CC50 (paCC50): paCC50 = CC50-HCT116-MTAP^del * (% free CCM/% free human plasma); for CC50: Homo sapiens, HCT116 MTAP-deleted
# Method in brief: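 Each PRMT5 inhibitor was tested as a dose response alongside tool compounds on the same plate. Incubation ran 7 days at 37 °C under 5% CO2, after which CellTiter-Glo luminescence was recorded and CC50 calculated.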
# [2] = Cell viability assay (CellTiter-Glo, 7 days), HCT116 WT; type: cell-based; conditions: human, HCT116 WT cells, 7 days of treatment, CTG
# Protocol: Control compounds were analyzed in parallel each time for quality control. In Brief, on Day -1, a serial dilution of stock compounds in DMSO was performed using BioMek liquid handlers and dispensed using Echo acoustic dispenser into 384 well plates. Both tool compounds and sample compounds were spotted in the same plate for a dose response of PRMT5 inhibitors. Compound plates were stored as frozen until the cells were ready for seeding. […] After equilibrating the plate in room temperature, the cells were incubated for 7 days inside the sealed incubator set at 37° C. with 90% humidity and 5% CO2. On Day 7, the viability of cells was measured using a CTG assay kit (CellTitre-Glo;Promega cat no. G7573). Shortly, 40 μl per well of luminescent cell viability assay reagent were dispensed using EL460 liquid dispenser 5 μl cassette. CTG luminescence signal was measured using an EnVision plate reader (PerkinElmer) in accordance with manufacturer's instruction. […] Selectivity with * is artificially high due to limited solubility of the compound hampering accurate measurement of WT CC50.
# [3] = PBS solubility (kinetic solubility from DMSO stocks); type: physicochemical; conditions: 22 °C, aqueous buffer, kinetic from dmso stock; 1x PBS pH 7.4, 1.0% DMSO, 24-hour incubation at ambient temperature
# Protocol: Buffer Preparation: 1×PBS, 7.4: Phosphate Buffered Saline solution 10×, PBS (Fisher Bioreagent, part number BP399-500) 50 mL was added to approximately 450 mL HPLC grade H2O. The volume of the solution was then adjusted to 500 mL for a total dilution factor of 1:10 and a final PBS concentration of 1×. The pH of the final solution was measured and found to be 7.4.
# The final DMSO Concentration is 1.0% and maximum theoretical compound concentration is 100 μM (assuming stock concentration of 10 mM). The filter plate was sealed. Following 24-hour incubation at ambient temperature (20.8-24.0° C.), the samples were vacuum filtered, and the filtrates were collected in a 96 well polypropylene plate for analysis. The collection plate was sealed for analysis. Filtrates were injected into the nitrogen detector for quantification on Analiza's Automated Discovery Workstation. The results are reported here in both μM and μg/mL.
# Calculation of Results: The equimolar nitrogen response of the detector is calibrated using standards which span the dynamic range of the instrument from 0.08 to 4500 μg/ml nitrogen. The filtrates were quantified with respect to this calibration curve. The calculated solubility values are corrected for background nitrogen present in the DMSO, and the media used to prepare the samples. All reported values for compounds containing adjacent nitrogen atoms in a ring structure should be increased by ˜25%. […] The solubility results presented assume that the samples were free of nitrogen containing impurities and are stable under the assay conditions.
# [4] = Hepatocyte stability assay, human; type: in vitro ADME; conditions: human hepatocytes, 1 μM
# Protocol: BioreclamationIVT (Baltimore, MD) provided the cryopreserved hepatocytes, hepatocyte thawing (HT) medium, and Krebs-Henseleit buffer (KHB) medium. The stock solution concentration was 1 M in DMSO and was then diluted further in acetonitrile/water (1:1 v/v). All other chemicals were purchased from Sigma-Aldrich (St. Louis, MO) or Thermo Fisher Scientific (Waltham, MA).
# The quench solution used to stop reactions in the hepatocyte incubations was comprised of 100% (v/v) acetonitrile. Internal Standard/Quench (IS/Q) solution used to stop reactions with the positive control also contained 200 nM Labetalol.
# Metabolic Stability in Cryopreserved Hepatocytes: Test compounds, or the positive control metabolic substrate, was incubated in suspensions of cryopreserved hepatocytes at a final concentration of 1 μM. Vials containing cryopreserved hepatocytes were removed from liquid nitrogen and immediately immersed in a 37° C. water bath. The vials were swirled gently until the contents had thawed. They were then immediately emptied into 48 mL of pre-warmed thawing medium in a 50 mL conical tube. Cells remaining in the vial were re-suspended with 1.0 mL of pre-warmed thawing medium and added to the conical tube. The tube was capped and then gently inverted several times to re-suspend the hepatocytes. The cell suspension was centrifuged at 500×g for 10 minutes at room temperature and the supernatant discarded. The cell pellet was loosened by gently swirling the centrifuge tube. Non-supplemented KHB medium was added to obtain the appropriate target cell density. The viabilities of all cell preparations were ≥85%, assessed by Trypan blue dye exclusion.
# For incubations, aliquots of hepatocyte suspension (250 μL containing a cell concentration of 2×10^6 cells/mL) were added to 250 μL of 2 μM substrate (test compound or positive control) in supplemented KHB in duplicate wells in a 24-well plate. Final concentration in the incubations were 1×10^6 cells/mL and 1 μM substrate. A cell-free control incubation (KHB only) was also included. The incubations were carried out with gentle shaking in a 37° C. incubator under a humid atmosphere of 95% air/5% CO2 (v/v). Aliquots (100 μL) were removed after 0, 1, 3, and 6 hours and added to 200 μL quenching solution. The samples were then placed on a shaker for 10 min followed by centrifugation at 3000×g for 20 min. The supernatant was transferred to a new plate and diluted with 100 μL of water to reduce the organic content and then placed on a shaker for 10 mins. Samples were injected and analyzed with methods described below.
# Liquid Chromatography: Quantification of positive control and test compound was performed by analyte/internal standard peak area ratios (PAR) measured on a Thermo Scientific™ Q Exactive™ Hybrid Quadrupole-Orbitrap Mass Spectrometer MS/MS with an electrospray interface operating in positive ion mode. The mass spectrometer was coupled to a Dionex Ultimate® 3000 HPLC system. Samples (10 μL aliquots) were injected with a Leap Technologies HTC PAL autosampler. For positive control, the column used was a Thermo Scientific™ Hypersil GOLD™ HPLC column ([…], 50×2.1 mm). Mobile phase A consisted of 95% (v/v) water, 5% (v/v) acetonitrile, and contained 0.1% (v/v) formic acid (FA). Mobile phase B consisted of 95% (v/v) acetonitrile, 5% (v/v) water, and contained 0.1% (v/v) FA. Elution was achieved, at a flow rate of 0.5 mL/min, by a series of linear gradients: initial condition was 5% B at 0 min, isocratic for 20 seconds; then linear gradient to 95% B over 90 seconds, followed by isocratic for 60 seconds at 95% B, and re-equilibrated to initial conditions over 70 seconds.
# Metabolic stabilities of positive control and test compound were determined by measuring the rates of disappearance of the parent with time by determining the % of parent remaining at time t (Ct) {Obach 1997}.
# Data (% of parent remaining) were plotted on a semi-log scale and fitted using an exponential fit: […]
# [5] = Pharmacokinetics in cassette in male Sprague-Dawley rats for Kp measurement; type: in vivo; conditions: 1 mg/kg, intravenous
# Protocol: E.1 Test Animal: Male Sprague-Dawley Rats (225-300 g) with Indwelling Bilateral Jugular Vain Cannula (JVC/JVC) or Single Jugular Vein Cannula (JVC)
# E.2 Pharmaceutical Formulation and Administration
# Test compound was dissolved in the vehicle of 10% DMSO, 10% ethanol, 40% polyethylene glycol 300, and 40% propylene glycol to get 1 mg/mL test compound solution. The compound was administered by intravenous administration at a dose of 1 mL/kg. Fasting was not required.
# • Anticoagulant: K2EDTA • Volume: approximately 225 μL blood at each bleed • Jugula vein via syringe and needle or another method (non-terminal samples) or exsanguination (cardiac puncture) under isoflurane (or CO2 inhalation if isoflurane is unavailable) anesthesia (terminal time points). Blood samples were collected into K2EDTA tubes • Tissue collection and processing: following the terminal blood collection, the brain and CSF were collected from each animal.
# [6] = MDR1/BCRP assay: permeability in cPgp-KO-MDCK-WT cells; type: in vitro ADME; conditions: dog, pH 7.4
# Protocol: The cells were maintained in an incubator at 37° C., 90% humidity, and 5% CO2 until reaching confluence over 5 days in 96-well transwell plates. Experiments were conducted using an HBSS donor buffer (Invitrogen) containing 10 mM HEPES and 15 mM glucose, adjusted to pH 7.4. The receiver well contained HBSS buffer supplemented with 1% BSA, 10 mM HEPES, and 15 mM glucose, and the pH was adjusted to 7.4. TEER values were measured to assess membrane integrity after an initial equilibration with BSA-free transport buffer for 15 minutes. The experiment was started by adding dosing solutions containing test compounds at 1 μM. Cells were dosed on the apical (A) side or basolateral (B) side at 100 μl and 200 μl, respectively, to determine forward (A to B) and reverse (B to A) permeability. At the 2-hour time point, 50 μl samples were collected from the receiver compartment. Each compound was tested in 2 separate replicate wells for each condition. All samples were immediately collected into plates, and 50 μL of acetonitrile was added. Subsequently, 350 μl of 30:70 methanol: acetonitrile containing internal standard was added to precipitate proteins and stabilize the test compounds. To test for non-specific binding and compound instability, the total amount of the drug was quantified at the end of the experiment and compared to the material present in the original dosing solution as a percentage of the recovery. All samples were analyzed by LC-MS/MS using electrospray ionization.
# The apparent permeability, Papp, and % recovery were calculated as follows: […]
# [7] = HCT-116, 168 h, 7 days of treatment, CTG, read-out: CC50-HCT116-MTAP^del
# [8] = HCT-116, cell viability assay, class symbols, read-out: CC50
# [9] = brain Kp = [brain]/[plasma], rat, read-out: Rat brain Kp
# [10] = brain Kpu,u = Kp * (plasma free/rat brain free), read-out: Rat brain Kpu,u
# [11] = HCT-116, cell viability, class symbols, read-out: CC50
solubility at 24 h [3],Human Predicted Hepatocyte CL [4],"Kp [5, 9]","Kp [5, 10]","Papp A→B at 2 h, 1 µM [6]",SMILES,Selectivity [1],plasma-adjusted CC50 (paCC50) ([1]; HCT-116),"CC50 [1, 7]",CC50 at 7 days [2],"CC50 [1, 8]","CC50 [1, 11]"
2.5 µM,6.7 mL/min/kg,,,,"Nc1nc2ccc(C(=O)N3CCC[C@@H]4Oc5cc(OC(F)(F)F)cc(F)c5[C@@H]43)cc2n2cncc12 [Ff-697, (4-aminoimidazo[1,5-a]quinoxalin-8-yl)((4aS,9bS)-9-fluoro-7-(trifluoromethoxy)-3,4,4a,9b-tetrahydrobenzofuro[3,2-b]pyridin-1(2H)-yl)methanone]",199,289 nM,25 nM,4990 nM,,
< 1 µM,,0.52,0.06,7.4 ×10⁻⁶ cm/s,"Nc1nc2cc(Cl)c(C(=O)N3CCC[C@@H]4Oc5cc(C(F)(F)F)ccc5[C@@H]43)cc2n2cncc12 [Ff-587, (4-amino-7-chloroimidazo[1,5-a]quinoxalin-8-yl)((4aS,9bS)-7-(trifluoromethyl)-3,4,4a,9b-tetrahydrobenzofuro[3,2-b]pyridin-1(2H)-yl)methanone]",55,329 nM,5 nM,274 nM,< 100 nM,
1.6 µM,,0.76,0.13,10.3 ×10⁻⁶ cm/s,"Cc1ncn2c1c(N)nc1ccc(C(=O)N3CCC[C@@H]4Oc5cc(C(F)(F)F)ccc5[C@@H]43)cc12 [Fg-31, (4-amino-3-methylimidazo[1,5-a]quinoxalin-8-yl)((4aS,9bS)-7-(trifluoromethyl)-3,4,4a,9b-tetrahydrobenzofuro[3,2-b]pyridin-1(2H)-yl)methanone]",113,312 nM,19 nM,2140 nM,< 100 nM,
< 1 µM,,,,10.2 ×10⁻⁶ cm/s,"Cc1ncc2c(N)nc3ccc(C(=O)N4CCC[C@@H]5Oc6cc(C(F)(F)F)ccc6[C@@H]54)cc3n12 [Ff-345, (4-amino-1-methylimidazo[1,5-a]quinoxalin-8-yl)((4aS,9bS)-7-(trifluoromethyl)-3,4,4a,9b-tetrahydrobenzofuro[3,2-b]pyridin-1(2H)-yl)methanone]",113,,32 nM,3620 nM,,< 100 nM
< 1 µM,,,,13.6 ×10⁻⁶ cm/s,"C[C@@H]1C[C@@H]2Oc3cc(C(F)(F)F)ccc3[C@@H]2N(C(=O)c2cc3c(cn2)nc(N)c2cncn23)C1 [Ff-252, (4-aminoimidazo[1,5-a]pyrido[3,4-e]pyrazin-8-yl)((3R,4aS,9bS)-3-methyl-7-(trifluoromethyl)-3,4,4a,9b-tetrahydrobenzofuro[3,2-b]pyridin-1(2H)-yl)methanone]",41,269 nM,13 nM,534 nM,,< 100 nM
< 1 µM,,,,7.6 ×10⁻⁶ cm/s,"Nc1nc2cnc(C(=O)N3CCC[C@@H]4Oc5cc(C(F)(F)F)c(F)cc5[C@@H]43)cc2n2cncc12 [Ff-115, (4-aminoimidazo[1,5-a]pyrido[3,4-e]pyrazin-8-yl)((4aS,9bS)-8-fluoro-7-(trifluoromethyl)-3,4,4a,9b-tetrahydrobenzofuro[3,2-b]pyridin-1(2H)-yl)methanone]",48,202 nM,10 nM,478 nM,,< 100 nM
